Assay results: ChEMBL document CHEMBL1155810, “Synthesis, structure-activity relationships, and biological profiles of a quinazolinone class of histamine H3 receptor inverse agonists” (J Med Chem, 2008)
Activity calls are given as the source filed them. No cut-off for these calls is given here.

Key:
[1] = biological target: Histamine H3 receptor (Homo sapiens, UniProt Q9Y5N1); test: Inverse agonist activity at human histamine H3 receptor expressed in CHO-K1 cells assessed as inhibition of N-alpha-methylhistamine-induced [35S]GTPgammaS binding; format: functional, cell-based
Sequence of Histamine H3 receptor (Homo sapiens, UniProt Q9Y5N1) (Q9Y5N1 whole entry): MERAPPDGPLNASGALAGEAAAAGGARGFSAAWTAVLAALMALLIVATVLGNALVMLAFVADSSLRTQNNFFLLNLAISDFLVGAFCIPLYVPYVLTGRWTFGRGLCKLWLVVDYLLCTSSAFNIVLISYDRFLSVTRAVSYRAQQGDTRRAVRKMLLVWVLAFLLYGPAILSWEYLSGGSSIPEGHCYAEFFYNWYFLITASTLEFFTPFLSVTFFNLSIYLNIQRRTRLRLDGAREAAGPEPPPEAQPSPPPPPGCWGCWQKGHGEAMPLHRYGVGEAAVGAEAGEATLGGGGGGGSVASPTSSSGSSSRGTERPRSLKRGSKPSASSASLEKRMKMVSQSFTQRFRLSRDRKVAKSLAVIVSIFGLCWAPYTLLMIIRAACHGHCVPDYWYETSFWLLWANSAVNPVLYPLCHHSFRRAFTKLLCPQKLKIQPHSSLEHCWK

[2] = biological target: Voltage-gated inwardly rectifying potassium channel KCNH2 (Homo sapiens, UniProt Q12809)
Sequence of Voltage-gated inwardly rectifying potassium channel KCNH2 (Q12809 whole entry): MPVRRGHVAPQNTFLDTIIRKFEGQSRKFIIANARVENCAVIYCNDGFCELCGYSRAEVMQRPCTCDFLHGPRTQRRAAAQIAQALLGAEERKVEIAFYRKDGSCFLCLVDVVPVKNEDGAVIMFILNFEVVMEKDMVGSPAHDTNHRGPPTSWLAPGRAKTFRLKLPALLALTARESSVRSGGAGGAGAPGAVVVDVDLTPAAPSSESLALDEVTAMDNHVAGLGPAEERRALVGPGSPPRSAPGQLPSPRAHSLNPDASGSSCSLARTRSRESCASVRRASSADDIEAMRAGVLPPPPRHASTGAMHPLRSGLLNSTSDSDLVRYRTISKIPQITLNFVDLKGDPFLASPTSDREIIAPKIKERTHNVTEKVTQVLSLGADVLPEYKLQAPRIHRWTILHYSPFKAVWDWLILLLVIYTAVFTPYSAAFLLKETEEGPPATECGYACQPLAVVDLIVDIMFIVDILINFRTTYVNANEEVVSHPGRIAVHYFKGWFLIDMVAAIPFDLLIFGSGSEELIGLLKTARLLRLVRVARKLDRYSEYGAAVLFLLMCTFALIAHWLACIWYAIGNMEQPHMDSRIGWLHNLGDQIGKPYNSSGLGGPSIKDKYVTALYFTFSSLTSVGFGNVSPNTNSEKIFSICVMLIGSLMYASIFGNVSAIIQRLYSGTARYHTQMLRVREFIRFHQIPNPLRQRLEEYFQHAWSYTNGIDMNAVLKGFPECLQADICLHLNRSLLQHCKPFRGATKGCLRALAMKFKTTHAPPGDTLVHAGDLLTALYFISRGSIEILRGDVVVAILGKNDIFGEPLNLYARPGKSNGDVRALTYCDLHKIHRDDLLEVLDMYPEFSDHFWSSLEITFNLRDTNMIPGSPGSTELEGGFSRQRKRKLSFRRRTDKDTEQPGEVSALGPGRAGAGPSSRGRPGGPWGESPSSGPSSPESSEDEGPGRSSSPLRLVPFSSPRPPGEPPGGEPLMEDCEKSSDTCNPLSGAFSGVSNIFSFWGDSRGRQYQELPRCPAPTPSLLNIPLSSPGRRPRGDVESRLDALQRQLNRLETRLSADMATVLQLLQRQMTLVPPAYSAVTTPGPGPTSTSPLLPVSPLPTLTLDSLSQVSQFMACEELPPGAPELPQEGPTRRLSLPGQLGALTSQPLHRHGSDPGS

[3] = Volume of distribution at steady state in Beagle dog at 1 mg/kg, iv; format: ADME, organism-based, Canis lupus familiaris; design: dose 1 mg/kg, route intravenous; settings: in vivo, read-out: Vdss
[4] = biological target: Histamine H1 receptor (Homo sapiens, UniProt P35367); test: Inhibition of human histamine H1 receptor
Sequence of Histamine H1 receptor (P35367 whole entry): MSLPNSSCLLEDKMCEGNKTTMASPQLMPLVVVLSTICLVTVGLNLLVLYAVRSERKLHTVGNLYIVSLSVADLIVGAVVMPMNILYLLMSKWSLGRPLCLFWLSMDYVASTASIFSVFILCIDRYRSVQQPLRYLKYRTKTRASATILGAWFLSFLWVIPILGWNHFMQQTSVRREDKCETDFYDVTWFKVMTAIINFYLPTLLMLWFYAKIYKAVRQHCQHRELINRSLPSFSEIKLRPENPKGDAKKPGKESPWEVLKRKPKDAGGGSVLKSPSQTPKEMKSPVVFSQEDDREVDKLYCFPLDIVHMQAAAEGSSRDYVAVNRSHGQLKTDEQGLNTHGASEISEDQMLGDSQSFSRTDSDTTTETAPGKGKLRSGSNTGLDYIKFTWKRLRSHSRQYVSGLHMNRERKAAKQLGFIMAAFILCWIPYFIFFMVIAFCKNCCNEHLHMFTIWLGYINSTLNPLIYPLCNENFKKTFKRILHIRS

[5] = biological target: Cytochrome P450 2D6 (Homo sapiens, UniProt P10635); test: Inhibition of CYP2D6; format: ADME
Sequence of Cytochrome P450 2D6 (P10635 whole entry): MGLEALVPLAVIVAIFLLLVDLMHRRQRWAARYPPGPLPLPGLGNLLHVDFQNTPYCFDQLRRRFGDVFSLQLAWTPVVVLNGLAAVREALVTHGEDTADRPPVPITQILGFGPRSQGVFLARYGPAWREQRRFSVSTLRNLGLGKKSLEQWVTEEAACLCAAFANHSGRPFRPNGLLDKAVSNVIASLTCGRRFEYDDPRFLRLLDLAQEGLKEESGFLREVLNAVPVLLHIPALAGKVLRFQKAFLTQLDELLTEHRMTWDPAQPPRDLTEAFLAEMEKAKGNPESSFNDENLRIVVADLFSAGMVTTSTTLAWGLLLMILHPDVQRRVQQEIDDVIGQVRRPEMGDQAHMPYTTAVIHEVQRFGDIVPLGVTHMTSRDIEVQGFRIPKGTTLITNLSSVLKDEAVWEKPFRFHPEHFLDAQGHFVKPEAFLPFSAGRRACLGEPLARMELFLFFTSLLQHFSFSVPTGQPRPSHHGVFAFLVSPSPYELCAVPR

[6] = species: Mus musculus; test: Ex vivo receptor occupancy of […] histamine H3 receptor in wild type MDR1a-proficient CF1 mouse brain; format: functional
[7] = tested on: Rattus norvegicus; test: Ex vivo increase in receptor occupancy of histamine H3 receptor in Sprague-Dawley rat brain at 30 mg/kg, po by autoradiography; format: functional
[8] = biological target: Histamine H2 receptor (Homo sapiens, UniProt P25021); test: Inhibition of human histamine H2 receptor
Sequence of Histamine H2 receptor (P25021 whole entry): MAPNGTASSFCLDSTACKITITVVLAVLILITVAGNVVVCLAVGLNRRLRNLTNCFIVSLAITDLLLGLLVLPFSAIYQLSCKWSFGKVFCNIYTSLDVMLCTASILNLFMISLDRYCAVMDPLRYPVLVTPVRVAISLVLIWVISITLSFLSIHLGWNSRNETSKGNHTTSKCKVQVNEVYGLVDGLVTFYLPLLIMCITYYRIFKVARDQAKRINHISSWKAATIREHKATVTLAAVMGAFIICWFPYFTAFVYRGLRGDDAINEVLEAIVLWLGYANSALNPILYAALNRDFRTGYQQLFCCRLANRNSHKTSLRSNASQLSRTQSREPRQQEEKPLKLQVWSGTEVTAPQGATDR

[9] = Ratio of drug level in Sprague-Dawley rat brain to plasma; format: ADME; settings: read-out: BPR
[10] = Half life in Beagle dog at 1 mg/kg, iv; format: ADME, organism-based, Canis lupus familiaris; design: dose 1 mg/kg, route intravenous; settings: in vivo
[11] = Volume of distribution at steady state in rhesus monkey at 1 mg/kg, iv; format: ADME, organism-based, Macaca mulatta; design: dose 1 mg/kg, route intravenous; settings: in vivo, read-out: Vdss
[12] = species: Mus musculus; test: Ex vivo receptor occupancy of […] histamine H3 receptor in wild type MDR1a-proficient CF1 mouse plasma; format: functional
[13] = species: Mus musculus; test: Ex vivo receptor occupancy of […] histamine H3 receptor in MDR1a-deficient CF1 mouse brain; format: functional
[14] = biological target: T1, Cytochrome P450 1A2 (Homo sapiens, UniProt P05177); test: Inhibition of CYP1A2; format: ADME
T1 sequence (P05177 whole entry): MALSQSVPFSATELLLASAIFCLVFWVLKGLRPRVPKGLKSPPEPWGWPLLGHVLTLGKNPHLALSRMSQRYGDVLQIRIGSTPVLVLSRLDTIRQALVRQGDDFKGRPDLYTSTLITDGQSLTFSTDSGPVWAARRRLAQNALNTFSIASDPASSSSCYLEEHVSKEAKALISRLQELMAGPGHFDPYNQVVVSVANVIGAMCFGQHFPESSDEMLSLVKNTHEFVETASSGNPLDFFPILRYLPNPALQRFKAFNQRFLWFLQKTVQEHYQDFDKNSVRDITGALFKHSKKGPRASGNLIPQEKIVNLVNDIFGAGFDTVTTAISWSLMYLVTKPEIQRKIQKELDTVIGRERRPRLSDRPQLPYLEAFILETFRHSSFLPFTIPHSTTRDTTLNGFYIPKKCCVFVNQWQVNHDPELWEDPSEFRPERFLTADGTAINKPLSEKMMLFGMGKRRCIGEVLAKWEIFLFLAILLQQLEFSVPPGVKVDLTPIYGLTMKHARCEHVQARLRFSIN

[15] = biological target: Cytochrome P450 3A4 (Homo sapiens, UniProt P08684); test: Inhibition of CYP3A4; format: ADME
Sequence of Cytochrome P450 3A4 (P08684 whole entry): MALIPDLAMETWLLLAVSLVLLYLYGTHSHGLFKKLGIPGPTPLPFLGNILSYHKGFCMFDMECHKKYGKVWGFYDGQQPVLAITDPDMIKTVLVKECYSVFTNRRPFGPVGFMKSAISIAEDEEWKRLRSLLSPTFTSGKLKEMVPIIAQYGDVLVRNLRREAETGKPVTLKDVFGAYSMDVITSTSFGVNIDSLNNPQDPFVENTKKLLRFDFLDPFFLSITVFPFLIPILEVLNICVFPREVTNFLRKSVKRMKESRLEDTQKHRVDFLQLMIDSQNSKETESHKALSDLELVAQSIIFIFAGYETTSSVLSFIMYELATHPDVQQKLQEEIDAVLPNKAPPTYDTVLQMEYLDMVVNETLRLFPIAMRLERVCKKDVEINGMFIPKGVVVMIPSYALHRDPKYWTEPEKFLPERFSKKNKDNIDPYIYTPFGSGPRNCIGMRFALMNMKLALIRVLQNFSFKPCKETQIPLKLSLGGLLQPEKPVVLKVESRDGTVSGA

[16] = Half life in rhesus monkey at 1 mg/kg, iv; format: ADME, organism-based, Macaca mulatta; design: dose 1 mg/kg, route intravenous; settings: in vivo
[17] = Oral bioavailability in Beagle dog at 3 mg/kg; format: ADME, organism-based, Canis lupus familiaris; settings: in vivo
[18] = tested on: Rattus norvegicus; test: Effect on histamine release in Sprague-Dawley rat brain assessed as increase in tele-methylhistamine level at 30 mg/kg, po after 2 hrs; format: functional, organism-based; design: dose 30 mg/kg
[19] = biological target: Histamine H3 receptor (Rattus norvegicus, UniProt Q9QYN8); test: Displacement of [3H]N-alpha-methylhistamine from rat histamine H3 receptor expressed in HEK293 cells coexpressed with CRE-beta-lactamase; format: cell-based
[20] = Oral bioavailability in rhesus monkey at 3 mg/kg; format: ADME, organism-based, Macaca mulatta; settings: in vivo
[21] = Cmax in Beagle dog at 3 mg/kg, po; format: ADME, organism-based, Canis lupus familiaris; design: dose 3 mg/kg, route oral; settings: in vivo
[22] = Plasma clearance in Beagle dog at 1 mg/kg, iv; format: ADME, organism-based, Canis lupus familiaris; design: dose 1 mg/kg, route intravenous
[23] = Half life in Sprague-Dawley rat at 1 mg/kg, iv; format: ADME, organism-based; design: dose 1 mg/kg, route intravenous; settings: in vivo
[24] = AUC (0 to infinity) in rhesus monkey at 3 mg/kg, po; format: ADME, organism-based, Macaca mulatta; design: time infinity, dose 3 mg/kg, route oral; settings: plasma
[25] = Ratio of drug level in wild type MDR1a-proficient CF1 mouse brain to plasma at 10 mg/kg, po after 2 hrs; format: ADME, organism-based; design: dose 10 mg/kg, route oral; settings: read-out: BPR
[26] = Plasma clearance in Sprague-Dawley rat at 1 mg/kg, iv; format: ADME, organism-based; design: dose 1 mg/kg, route intravenous
[27] = Cmax in rhesus monkey at 3 mg/kg, po; format: ADME, organism-based, Macaca mulatta; design: dose 3 mg/kg, route oral; settings: in vivo
[28] = Volume of distribution at steady state in Sprague-Dawley rat at 1 mg/kg, iv; format: ADME, organism-based; design: dose 1 mg/kg, route intravenous; settings: in vivo, read-out: Vdss
[29] = Plasma clearance in rhesus monkey at 1 mg/kg, iv; format: ADME, organism-based, Macaca mulatta; design: dose 1 mg/kg, route intravenous
[30] = biological target: Histamine receptor H3 (Macaca mulatta, UniProt Q865E1); test: Displacement of [3H]N-alpha-methylhistamine from rhesus monkey histamine H3 receptor expressed in HEK293T cells; format: cell-based, HEK-293T
Sequence of Histamine receptor H3 (Q865E1 whole entry): as the sequence (Q9Y5N1 whole entry) above, with D148N, A240G, V282A, A289T, T290A, V300A, H442Q counted along it

[31] = Plasma concentration in Sprague-Dawley rat at 10 mg/kg, po after 2 hrs; format: ADME, organism-based; design: dose 10 mg/kg, route oral
[32] = Ratio of drug level in MDR1a-deficient CF1 mouse brain to plasma at 10 mg/kg, po after 2 hrs; format: ADME, organism-based; design: dose 10 mg/kg, route oral; settings: read-out: BPR
[33] = Oral bioavailability in Sprague-Dawley rat at 3 mg/kg; format: ADME, organism-based; settings: in vivo
[34] = biological target: Cytochrome P450 2C9 (Homo sapiens, UniProt P11712); test: Inhibition of CYP2C9; format: ADME
Sequence of Cytochrome P450 2C9 (P11712 whole entry): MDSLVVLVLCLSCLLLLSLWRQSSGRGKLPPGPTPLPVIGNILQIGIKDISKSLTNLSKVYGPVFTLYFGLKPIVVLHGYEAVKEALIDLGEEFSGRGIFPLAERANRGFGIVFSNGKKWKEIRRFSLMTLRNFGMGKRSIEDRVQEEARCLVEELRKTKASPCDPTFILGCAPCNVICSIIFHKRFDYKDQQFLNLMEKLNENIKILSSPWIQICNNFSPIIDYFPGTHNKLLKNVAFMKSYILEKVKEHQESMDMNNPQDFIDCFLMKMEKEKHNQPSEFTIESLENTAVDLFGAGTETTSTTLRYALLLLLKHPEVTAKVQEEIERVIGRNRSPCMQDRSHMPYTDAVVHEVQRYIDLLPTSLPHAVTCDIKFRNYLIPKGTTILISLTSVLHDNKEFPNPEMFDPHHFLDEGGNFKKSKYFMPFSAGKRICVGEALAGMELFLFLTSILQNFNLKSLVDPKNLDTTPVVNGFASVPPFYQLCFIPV

[35] = tested on: Brain; test: Drug level in Sprague-Dawley rat brain at 10 mg/kg, po after 2 hrs; format: ADME, organism-based; design: dose 10 mg/kg, route oral; settings: in vivo
[36] = biological target: Histamine H4 receptor (Homo sapiens, UniProt Q9H3N8); test: Inhibition of human histamine H4 receptor
Sequence of Histamine H4 receptor (Q9H3N8 whole entry): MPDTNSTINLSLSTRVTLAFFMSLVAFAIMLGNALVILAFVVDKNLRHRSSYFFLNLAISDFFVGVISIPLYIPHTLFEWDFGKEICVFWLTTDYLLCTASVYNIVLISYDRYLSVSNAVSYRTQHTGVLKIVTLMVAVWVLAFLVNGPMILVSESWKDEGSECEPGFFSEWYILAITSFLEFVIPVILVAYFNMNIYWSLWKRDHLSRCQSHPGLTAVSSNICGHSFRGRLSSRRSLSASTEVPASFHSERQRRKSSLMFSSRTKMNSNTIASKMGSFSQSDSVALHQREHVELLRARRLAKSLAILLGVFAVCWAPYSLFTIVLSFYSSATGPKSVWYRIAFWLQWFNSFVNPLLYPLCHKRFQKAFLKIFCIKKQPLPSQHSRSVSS

[37] = biological target: T2, Cytochrome P450 2A6 (Homo sapiens, UniProt P11509); test: Inhibition of CYP2A6; format: ADME
T2 sequence (P11509 whole entry): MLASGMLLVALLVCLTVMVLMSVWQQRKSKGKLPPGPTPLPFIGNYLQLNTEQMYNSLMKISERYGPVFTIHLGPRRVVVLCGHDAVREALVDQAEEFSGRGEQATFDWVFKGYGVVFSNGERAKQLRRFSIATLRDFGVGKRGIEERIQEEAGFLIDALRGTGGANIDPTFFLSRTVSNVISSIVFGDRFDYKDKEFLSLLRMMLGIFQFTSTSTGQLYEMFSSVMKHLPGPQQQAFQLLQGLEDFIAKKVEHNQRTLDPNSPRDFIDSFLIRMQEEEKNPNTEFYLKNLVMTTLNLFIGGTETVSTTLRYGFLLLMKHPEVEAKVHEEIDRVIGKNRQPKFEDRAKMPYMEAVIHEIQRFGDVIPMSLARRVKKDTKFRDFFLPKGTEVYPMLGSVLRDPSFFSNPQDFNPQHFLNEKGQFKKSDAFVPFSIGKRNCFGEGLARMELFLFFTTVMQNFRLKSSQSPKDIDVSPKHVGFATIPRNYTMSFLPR

[38] = AUC (0 to infinity) in Beagle dog at 3 mg/kg, po; format: ADME, organism-based, Canis lupus familiaris; design: time infinity, dose 3 mg/kg, route oral; settings: plasma
[39] = species: Mus musculus; test: Ex vivo receptor occupancy of […] histamine H3 receptor in MDR1a-deficient CF1 mouse plasma; format: functional
[40] = Cmax in Sprague-Dawley rat at 3 mg/kg, po; format: ADME, organism-based; design: dose 3 mg/kg, route oral; settings: in vivo
[41] = biological target: Cytochrome P450 2C19 (Homo sapiens, UniProt P33261); test: Inhibition of CYP2C19; format: ADME
Sequence of Cytochrome P450 2C19 (P33261 whole entry): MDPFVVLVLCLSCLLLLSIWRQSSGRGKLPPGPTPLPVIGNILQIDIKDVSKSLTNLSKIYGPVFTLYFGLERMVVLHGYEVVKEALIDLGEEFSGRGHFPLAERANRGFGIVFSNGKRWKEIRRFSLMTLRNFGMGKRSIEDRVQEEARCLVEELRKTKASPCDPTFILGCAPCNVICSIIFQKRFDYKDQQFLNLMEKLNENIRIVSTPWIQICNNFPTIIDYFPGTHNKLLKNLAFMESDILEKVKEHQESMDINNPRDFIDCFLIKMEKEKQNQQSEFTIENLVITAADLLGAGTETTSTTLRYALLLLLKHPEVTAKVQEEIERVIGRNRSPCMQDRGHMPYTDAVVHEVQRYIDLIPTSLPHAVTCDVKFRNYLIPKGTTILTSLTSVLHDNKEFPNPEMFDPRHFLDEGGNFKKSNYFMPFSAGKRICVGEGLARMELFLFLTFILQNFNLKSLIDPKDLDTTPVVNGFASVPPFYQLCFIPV

[42] = AUC (0 to infinity) in Sprague-Dawley rat at 3 mg/kg, po; format: ADME, organism-based; design: time infinity, dose 3 mg/kg, route oral; settings: plasma

Cc1nc2ccccc2c(=O)n1-c1ccc(OCCCN2[C@H](C)CC[C@H]2C)cc1
IC50 [1]: 20 nM

Cc1nc2ccccc2c(=O)n1-c1ccc(OCCCN2CC(C)CC(C)C2)cc1 (configuration not stated)
IC50 [1]: 28 nM

Cc1nc2ccccc2c(=O)n1-c1ccc(OCCCN2CCCCCC2)cc1
IC50 [1]: 1.6 nM

Cc1nc2ccccc2c(=O)n1-c1ccc(OCCCN2CCC[C@@H]2C)cc1
IC50 [1]: 2.2 nM | IC50 [2]: 6000 nM

Cc1nc2ccccc2c(=O)n1-c1ccc(OCCCN2CCC[C@H]2C)cc1
IC50 [1]: 4.3 nM | IC50 [2]: > 10000 nM

Cc1nc2ccccc2c(=O)n1-c1ccc(OCCCN2CCC(C)CC2)cc1
IC50 [1]: 23 nM

Cc1nc2ccccc2c(=O)n1-c1ccc(OCCCN2CCC[C@H](C)C2)cc1
IC50 [1]: 0.72 nM | IC50 [2]: 5300 nM

Cc1nc2ccccc2c(=O)n1-c1ccc(OCCCN2CCCCCCC2)cc1
IC50 [1]: 10 nM

Cc1nc2ccccc2c(=O)n1-c1ccc(OCCCN2CCCCC2C)cc1 (configuration not stated)
IC50 [1]: 11 nM

Cc1nc2ccccc2c(=O)n1-c1ccc(OCCCN2CCCCC2)cc1
IC50 [1]: 3.1 nM

Cc1nc2ccccc2c(=O)n1-c1ccc(OCCCN2CCC(C)C2)cc1 (configuration not stated)
IC50 [1]: 5.8 nM | IC50 [2]: 6400 nM

Cc1nc2ccccc2c(=O)n1-c1ccc(OCCCN2CCC[C@@H](C)C2)cc1
IC50 [1]: 41 nM

CCN(CC)CCCOc1ccc(-n2c(C)nc3ccccc3c2=O)cc1
IC50 [1]: 33 nM

Cc1nc2cccc(C(F)(F)F)c2c(=O)n1-c1ccc(OCCCN2CCCC2)cc1 [MK-0249]
Vd [3]: 9.7 L/kg | IC50 [4]: > 10000 nM | IC50 [5]: > 27000 nM | Occ90 [6]: 2 nmol/g | Activity [7]: >90% | IC50 [8]: > 10000 nM | Kp [9]: 1.1 | half-life [10]: 9.9 h | Vd [11]: 6 L/kg | Occ90 [12]: 1.17 µM | Occ90 [13]: 2 nmol/g | IC50 [14]: > 27000 nM | IC50 [15]: > 27000 nM | half-life [16]: 5.4 h | bioavailability [17]: > 100% | Activity [18]: Active | Ki [19]: 33 nM | bioavailability [20]: 28% | Cmax [21]: 1800 nM | clearance [22]: 19 mL/min/kg | half-life [23]: 5.5 h | AUC(0-inf) [24]: 1.84 µM·h | Kp at 2 h [25]: 0.8 | clearance [26]: 12 mL/min/kg | Cmax [27]: 440 nM | Vd [28]: 4.4 L/kg | clearance [29]: 18 mL/min/kg | Ki [30]: 4.3 nM | concentration at 2 h [31]: 1580 nM | Kp at 2 h [32]: 14 | bioavailability [33]: 65% | IC50 [34]: > 21000 nM | Drug uptake [35]: 1.67 nmol/g | IC50 [36]: > 10000 nM | IC50 [37]: > 27000 nM | AUC(0-inf) [38]: 11.8 µM·h | Occ90 [39]: 40 nM | Cmax [40]: 1010 nM | IC50 [41]: > 27000 nM | AUC(0-inf) [42]: 6.35 µM·h
